Legend:
soybean seedlings = assay: Soybean seedling response to spot infiltrated auxins and conjugates; on 1st trifoliate leaf curl: key: 0 = no phenotype; +/− = threshold; on Chlorotic lesion @ app. Pnt: key: 0 = no phenotype; +/− = threshold; type: in vivo; set-up: 1st trifoliate leaf curl / Epinasty score: key: 0 = no phenotype; +/− = threshold; details: for 1st trifoliate leaf curl / Chlorotic lesion @ app. Pnt / Epinasty score: spot infiltration
Method: Conjugate forms of auxinic compounds when applied through spot infiltration, a needleless method to introduce exogenous agents into plant cells. Initially, various concentrations of analytical grade (98%+pure) IAA, 2,4-D, and dicamba were prepared as solutions that were applied directly to uni-foliate leaves of 9 day old soybean seedlings by spot infiltration in order to determine the range of auxinic response and severity.
Spot infiltration comprises applying a compound to be tested in composition that is applied to the surface of a plant, for example, to a leaf or other plant structure. For example, a method for testing a plant response to one or more compounds using spot infiltration comprises a) providing a composition comprising one or more compounds to be tested in a container having at least an opening for the compound enter and/or exit, and one or more elements for moving the composition into or out of the container; b) contacting at least one opening of the container with the surface of a plant and moving the composition comprising one or more compounds to at least the surface of the plant. A container and elements for moving the composition may comprise a syringe body and plunger. Moving the composition to the plant surface comprises contacting the surface with pressure sufficient for the composition to enter the cells of the plant. In an aspect, spot filtration testing comprises measuring an effect of the composition on the contacted plant and comparing that measure or effect to a plant that is not contacted with the composition.
Plant response phenotypes were documented at one day post-spot infiltration and subsequently every other day, up to nine days post treatment. […] In the studies described herein below, 5 replicate treatments for each conjugate form were conducted, along with appropriate negative controls.
Examples 9 and 10 utilized a spot infiltration method for the delivery of an herbicide directly to leaves of a plant. The method generally allows for the directed delivery of a variety of agents to a localized area of a plant, e.g. localized region of leaves, for screening or assessment purposes, e.g. to quickly assess the response of a plant to the agent. As used in the foregoing examples, the spot infiltration method was used to introduce specific herbicides or specific conjugates of the herbicides to seedling plant leaves. Following introduction of the herbicide or the appropriate conjugate, plants were observed daily for nine days for characteristics of epinasty, trifoliate leaf curly, chlorosis, and new growth recovery.
Briefly, a solution of the desired agent is prepared of the desired agent, e.g. as described above in Example 10, solutions (5% EtOH) of 1, 2.5 and 5 mM IAA. The solution is then drawn into a 1 mL BD™ slip-tip syringe, bulk, non-sterile syringe (e.g. Becton, Dickinson and Company, Product No. 301025) with 100 μL markings. The desired volume is then applied to the leaf, e.g. as described in Examples 9 and 10, with the tip of the syring against the leaf and positive pressure applied to the syringe plunger. Sufficient pressure is applied in order to infuse the area beneath the syringe opening, but not so much pressure as to cause a visible-to-the-eye puncture or hole to form in the leaf. Some run-off of solution around the syringe opening is expected. In the foregoing examples, two spots were applied to each of two leaves per seedling for soybean plants. […] In soybean, both spots per leaf were at the distal portion of the leaf about 1-2 cm apart. When the method was applied to Arabidopsis, two developmentally intermediate aged leaves were chosen per plant, and one spot infiltration was carried out per leaf.

[1] = LC-MS assay of GH3 conjugation of IAA with Asp or Glu; type: biochemical; details: for kcat (hrs−1) IAA-Asp: conjugation of IAA with Asp by recombinant GH3 protein, IAA-Asp product by LC-MS; for kcat (hrs−1) IAA-Glu: conjugation of IAA with Glu by recombinant GH3 protein, IAA-Glu product by LC-MS
Method in brief: (§1)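 Amino acid conjugates of IAA, 2,4-D or dicamba measured by LC-MS against conjugate standards, with kinetic parameters fitted to Michaelis-Menten initial velocities. Reactions: 5 mM each of auxin, ATP and Asp or Glu with 44 to 164 μg/mL purified His-tagged GH3 (E. coli-expressed), pH 8.0 Tris, 5 mM MgCl2, 1 mM DTT, 30 °C for 3 h.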

[2] = LC-MS assay of GH3 conjugation of 2,4-D with Asp or Glu; type: biochemical; details: 5 mM 2,4-D substrate; for kcat (hrs−1) 2,4-D-Asp: conjugation of 2,4-D with Asp by recombinant GH3 protein, 2,4-D-Asp product by LC-MS; for kcat (hrs−1) 2,4-D-Glu: conjugation of 2,4-D with Glu by recombinant GH3 protein, 2,4-D-Glu product by LC-MS
Method in brief: as §1

O=C(Cc1c[nH]c2ccccc12)NC(Cc1ccccc1)C(=O)O (centres unmarked) [IAA-Phe]
1st trifoliate leaf curl (soybean seedlings; 1.0 mM): 0
Chlorotic lesion @ app. Pnt (soybean seedlings; 1.0 mM): 0
Epinasty score (soybean seedlings; 1.0 mM): 0
1st trifoliate leaf curl (soybean seedlings; 2.5 mM): 0
Chlorotic lesion @ app. Pnt (soybean seedlings; 2.5 mM): 0
Epinasty score (soybean seedlings; 2.5 mM): 0
1st trifoliate leaf curl (soybean seedlings; 5.0 mM): 0
Chlorotic lesion @ app. Pnt (soybean seedlings; 5.0 mM): 0
Epinasty score (soybean seedlings; 5.0 mM): 0
Plant response phenotype, soybean (soybean seedlings; 1, 2.5 and 5 mM, result in words): No discernable phenotype
Lesion on leaf surface at point of application, soybean (soybean seedlings; dissolved in 50% EtOH, consistent with 50% EtOH alone control): necrotic lesion on leaf surface at point of application

O=C(COc1ccc(Cl)cc1Cl)NC(Cc1ccccc1)C(=O)O [2,4-D-Phe]
1st trifoliate leaf curl (soybean seedlings; 100 μM): 0
1st trifoliate leaf curl (soybean seedlings; 250 μM): 0
1st trifoliate leaf curl (soybean seedlings; 500 μM): 0

B1: AIGH3-17: GH3 protein, accession XP_002890761 (protein, listed as Arabidopsis lyrata)
chain: MIPSYDPNDTEAGLKLLDDLTTNAETIQQQVLHQILSQNSGTQYLRAFLDGESDKNQQSFKNKVPVVNYDDIKPFIQRIADGESYDIVSAQPITELLTSSGTSAGKPKLMPSTAEELDRKTFFYSMLVPIMNKYVNGLDEGKGMYLLFIKPEIKTPSGLMARPVLTSYYKSQHFRNRPFNKYNVYTSPDQTILCQDSKQSMYCQLLCGLVQRSHVLRVGAVFASAFLRAVKFLEDHYKELCADIRTGTVTSWITNSSCRDSVLSILNGPNQELADEIESECAEKSWEGILRRIWPKAKYVEVIVTGSMAQYIPTLEFYSGGLPLVSTMYASSECYFGINLNPLCDPADVSYTLLPNMAYFEFLPVDDKSHEEIHFASHSNTDDDDDALKEDLIVDLVNVKVGQYYEIVITTFTGLYRYRVGDILKVTGFHNKAPQFRFVQRRNVVLSIDTDKTSEEDLLNAVTQAKLNHLQHPSSLLLMEYTSYADTSSIPGHYVLFWELKPRHSNDPPKLDDKTMDDCCSEVEDCLDYVYRRCRNRDKSIGPLEIRVVSLGTFDSLMDFCVSQGSSLNQYKTPRCVKSGGALEILDSRVIGRFFSKRVPQWEPLGLDS
kcat (hrs−1) IAA-Asp [1]: 33.508 h⁻¹
kcat (hrs−1) IAA-Glu [1]: 317.690 h⁻¹
kcat (hrs−1) 2,4-D-Asp [2]: 0.212 h⁻¹
kcat (hrs−1) 2,4-D-Glu [2]: 0.455 h⁻¹

B2: VvGH3-5: GH3 protein, accession XP_002276241 (protein, listed as Vitis vinifera)
chain: MPEAPKNRGNGAGLGVEGGILDDKNIRALEFIEDVTMNAKEVQMQVLSEIITRNSNVEYLQRHGLNGRVDADTFKKIVPVVTYEDMLPDIERIANGDMSPILCSKPISEFLTSSGTSGGERKLMPTIEEELGRRSLLYSLLMPVMNQSVPGLDEGKGMYFLFVKSEAKTPGGLMARPVLTSYYKSSYFRDRPYDPYTNYTSPNETILCPDSYQSMYSQLLCGLCQNKEVLRVGAVFASGFIRAIRFLEKHWVLLCKDIRAGTLDSQINDPSVREAVKRILKPNPELADFIEAECRRESWEGIITRLWPNTKYIDVIVTGTMSQYIPTLDYYSNGLPLVCTMYASSECYFGLNLNPLCKPSEVSYTLIPTMAYFEFLPVNRKNGFTNVSESAPLNEKEHQELVDLVDVKLGQEYELVVTTYAGLYRYRVGDILCVAGFKNKAPQFKFICRKNVALSIDSDKTDEFELQNAVKNAADHLLQFDASVTEYTSYADTSTIPGHYVLYWEIGLSGATPIPPSVFEDCCLIMEESLNSVYRQGRASDKSIGPLEIRIVEGGTFDKLMDYALSQGASINQYKTPRCVKYAPIIELLNSRVVSNYFSPKCPKWVAGHKQWCT
kcat (hrs−1) IAA-Asp [1]: 759.486 h⁻¹
kcat (hrs−1) IAA-Glu [1]: 47.289 h⁻¹
kcat (hrs−1) 2,4-D-Asp [2]: 2.603 h⁻¹
kcat (hrs−1) 2,4-D-Glu [2]: 0.974 h⁻¹

B3: VvGH3-3: GH3 protein, accession XP_002283229 (protein, listed as Vitis vinifera)
chain: MPEAPKKSFKATGHDYCLAEKNKKALQFIEDVTTNADQVQKRVLAEILTRNAHVEYLHRHGLGGHTDRDTFKKLMPVITYEDLQPDITRIANGDTSLILCSNPISEFLTSSGTSGGERKLMPTIEEELERRSLLYSLLMPVMSQSVQGLEKGKGMYFLFIKSEAKTPGGLVARPVLTSYYKSSHFRERPYDPYTNYTSPNETILCPDSYQSMYSQMLCGLVQNKEVLRVGAVFASGFIRAIRFLEKHWTLLCRDIRTGTIDQQITDPSVREAVMRVLKPDPKLADFVEGECRKESWQGIITRLWPNTKYVDVIVTGTMSQYIPTLDYYSNDLPLVCTMYASSECYFGVNLNPLCKPSEVSYTLIPTMAYFEFLPVHRNNGTNSISVPKSLNDKEQQDLVDLVDVKLGQEYELVVTTYAGLYRYRVGDVLRVAGFKNKAPQFNFVCRKNVVLSIDSDKTDEVELQAAVKNAVNHLMPFDATLTEYTSYADTTTIPGHYVLYWELSLRGSTPIPPSVFEDCCLTVEESLNSVYRQGRVSDKSIGPLEMKIVESGTFDKLMDYAISLGASINQYKTPRCVKFAPIIELLNSRVVSNYFSPKCPKWIPGHKQWCNKN
kcat (hrs−1) IAA-Asp [1]: 1006.325 h⁻¹
kcat (hrs−1) IAA-Glu [1]: 79.770 h⁻¹
kcat (hrs−1) 2,4-D-Asp [2]: 5.615 h⁻¹
kcat (hrs−1) 2,4-D-Glu [2]: 1.602 h⁻¹

— patent US20150351390A1, “COMPOSITIONS AND METHODS FOR AUXIN-ANALOG CONJUGATION” (PIONEER HI-BRED INTERNATIONAL, INC., priority 2012, published 2015)
